Reference: US8530489B2 (Vertex Pharmaceuticals Incorporated, priority 2006, dated 2013)
pKi: −log10 of the molar value.

Biological target: PLK1 (Homo sapiens, UniProt P53350)
Experiment: PLK1 Inhibition Assay I (radioactive-phosphate incorporation)
Format: biochemical
Settings: Ki(app); PLK1 Inhibition Assay I or II (table does not say which)
In short: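 Ki(app) values came from non-linear regression of initial rates after background subtraction, with phosphopeptide measured by phosphocellulose filter binding and scintillation counting. PLK1 at 2 nM was preincubated with compound (typically from 10 μM, 2-fold dilutions) for 10 min, then run 240 min at 25° C with 350 μM [γ-33P]ATP and 450 μM peptide substrate in HEPES pH 7.5 buffer.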

PLK1, sequence (P53350 whole entry): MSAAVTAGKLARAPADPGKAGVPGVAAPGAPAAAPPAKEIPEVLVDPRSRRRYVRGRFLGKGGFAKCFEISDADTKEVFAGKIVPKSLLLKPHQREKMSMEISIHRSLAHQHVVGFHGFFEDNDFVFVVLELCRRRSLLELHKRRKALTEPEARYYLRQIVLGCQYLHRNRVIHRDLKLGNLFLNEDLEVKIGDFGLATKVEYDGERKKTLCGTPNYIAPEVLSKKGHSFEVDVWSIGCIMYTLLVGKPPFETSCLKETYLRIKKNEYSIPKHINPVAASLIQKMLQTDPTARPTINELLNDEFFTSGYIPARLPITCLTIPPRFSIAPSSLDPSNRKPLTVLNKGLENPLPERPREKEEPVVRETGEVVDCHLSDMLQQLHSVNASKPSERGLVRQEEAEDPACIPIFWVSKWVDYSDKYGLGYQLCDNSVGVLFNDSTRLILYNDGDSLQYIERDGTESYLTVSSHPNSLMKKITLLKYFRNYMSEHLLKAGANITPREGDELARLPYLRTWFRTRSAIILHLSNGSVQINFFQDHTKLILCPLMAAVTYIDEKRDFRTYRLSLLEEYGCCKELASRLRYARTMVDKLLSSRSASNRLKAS

| pKi | SMILES |
| --- | --- |
| > 8.52 | CC(C)S(=O)(=O)N1CCC([C@@H](C)Nc2ncc(C#N)c(-c3c[nH]c4ncc(C(F)(F)F)cc34)n2)CC1 [Compound I-213, 2-((R)-1-(1-(isopropylsulfonyl)piperidin-4-yl)ethylamino)-4-(5-(trifluoromethyl)-1H-pyrrolo[2,3-b]pyridin-3-yl)pyrimidine-5-carbonitrile] |
| > 8.52 | C[C@@H](N)C(=O)N1CCC([C@@H](C)Nc2ncc(C#N)c(-c3c[nH]c4ncc(C(F)(F)F)cc34)n2)CC1 [Compound I-225, 2-((R)-1-(1-((R)-2-aminopropanoyl)piperidin-4-yl)ethylamino)-4-(5-(trifluoromethyl)-1H-pyrrolo[2,3-b]pyridin-3-yl)pyrimidine-5-carbonitrile] |
| > 8.52 | C[C@@H](Nc1ncc(C#N)c(-c2c[nH]c3ncc(C(F)(F)F)cc23)n1)c1ccc(NC(=O)C2CC2)cc1 [Compound I-137, N-(4-((1R)-1-(5-cyano-4-(5-(trifluoromethyl)-1H-pyrrolo[2,3-b]pyridin-3-yl)pyrimidin-2-ylamino)ethyl)phenyl)cyclopropanecarboxamide] |
| > 8.52 | C[C@@H](Nc1ncc(C#N)c(-c2c[nH]c3ncc(C(F)(F)F)cc23)n1)c1cnc(N2CCN(C)CC2)nc1 [Compound I-299, 2-((R)-1-(2-(4-methylpiperazin-1-yl)pyrimidin-5-yl)ethylamino)-4-(5-(trifluoromethyl)-1H-pyrrolo[2,3-b]pyridin-3-yl)pyrimidine-5-carbonitrile] |
| > 8.52 | C[C@@H](Nc1ncc(C#N)c(-c2c[nH]c3ncc(C(F)(F)F)cc23)n1)C1CCN(C(=O)[C@H](N)CO)CC1 [Compound I-240, 2-((R)-1-(1-((R)-2-amino-3-hydroxypropanoyl)piperidin-4-yl)ethylamino)-4-(5-(trifluoromethyl)-1H-pyrrolo[2,3-b]pyridin-3-yl)pyrimidine-5-carbonitrile] |
| 7.40 to 8.52 | C[C@@H](Nc1ncc(C#N)c(-c2c[nH]c3ncc(C(F)(F)F)cc23)n1)c1ccc(N(C)CCCN(C)C)nc1 [Compound I-283, 2-((R)-1-(6-((3-(dimethylamino)propyl)(methyl)amino)pyridin-3-yl)ethylamino)-4-(5-(trifluoromethyl)-1H-pyrrolo[2,3-b]pyridin-3-yl)pyrimidine-5-carbonitrile] |
| > 8.52 | CC(Nc1ncc(C#N)c(-c2c[nH]c3ncc(C(F)(F)F)cc23)n1)C1CCN(C(=O)N(C)C)CC1 (stereo not drawn) [Compound I-157, 4-(1-(5-cyano-4-(5-(trifluoromethyl)-1H-pyrrolo[2,3-b]pyridin-3-yl)pyrimidin-2-ylamino)ethyl)-N,N-dimethylpiperidine-1-carboxamide] |
| < 7.40 | N#Cc1cnc(NCc2ccccc2Cl)nc1-c1c[nH]c2ncc(C(F)(F)F)cc12 [Compound I-17, 2-(2-chlorobenzylamino)-4-(5-(trifluoromethyl)-1H-pyrrolo[2,3-b]pyridin-3-yl)pyrimidine-5-carbonitrile] |
| > 8.52 | CNc1ccc(C(C)Nc2ncc(C#N)c(-c3c[nH]c4ncc(C(F)(F)F)cc34)n2)cn1 (stereo not drawn) [Compound I-151, 2-(1-(6-(methylamino)pyridin-3-yl)ethylamino)-4-(5-(trifluoromethyl)-1H-pyrrolo[2,3-b]pyridin-3-yl)pyrimidine-5-carbonitrile] |
| < 7.40 | CC(C)(Nc1ncc(C#N)c(-c2c[nH]c3ncccc23)n1)C(=O)NCC(F)(F)F [IA-10, 2-(5-cyano-4-(1H-pyrrolo[2,3-b]pyridin-3-yl)pyrimidin-2-ylamino)-2-methyl-N-(2,2,2-trifluoroethyl)propanamide] |
| < 7.40 | COc1ccc(CNc2ncc(C#N)c(-c3c[nH]c4ncc(C(F)(F)F)cc34)n2)cc1 [Compound I-12, 2-(4-methoxybenzylamino)-4-(5-(trifluoromethyl)-1H-pyrrolo[2,3-b]pyridin-3-yl)pyrimidine-5-carbonitrile] |
| > 8.52 | C[C@@H](Nc1ncc(C#N)c(-c2c[nH]c3ncc(C(F)(F)F)cc23)n1)c1ccc(S(=O)(=O)N(C)C)cc1 [Compound I-190, 4-((1R)-1-(5-cyano-4-(5-(trifluoromethyl)-1H-pyrrolo[2,3-b]pyridin-3-yl)pyrimidin-2-ylamino)ethyl)-N,N-dimethylbenzenesulfonamide] |
| < 7.40 | N#CCNc1ncc(C#N)c(-c2c[nH]c3ncc(C(F)(F)F)cc23)n1 [Compound I-71, 2-(cyanomethylamino)-4-(5-(trifluoromethyl)-1H-pyrrolo[2,3-b]pyridin-3-yl)pyrimidine-5-carbonitrile] |
| 7.40 to 8.52 | COc1ccc(CNc2ncc(C#N)c(-c3c[nH]c4ncc(C(F)(F)F)cc34)n2)cc1Cl [Compound I-94, 2-(3-chloro-4-methoxybenzylamino)-4-(5-(trifluoromethyl)-1H-pyrrolo[2,3-b]pyridin-3-yl)pyrimidine-5-carbonitrile] |
| < 7.40 | N#Cc1cnc(NCCCN2CCOCC2)nc1-c1c[nH]c2ncc(C(F)(F)F)cc12 [Compound I-70, 2-(3-morpholinopropylamino)-4-(5-(trifluoromethyl)-1H-pyrrolo[2,3-b]pyridin-3-yl)pyrimidine-5-carbonitrile] |
| > 8.52 | CC(C)(C)[C@@H](CO)Nc1ncc(C#N)c(-c2c[nH]c3ncc(C(F)(F)F)cc23)n1 [Compound I-111, 2-((S)-1-hydroxy-3,3-dimethylbutan-2-ylamino)-4-(5-(trifluoromethyl)-1H-pyrrolo[2,3-b]pyridin-3-yl)pyrimidine-5-carbonitrile] |
| 7.40 to 8.52 | CC(=O)N1CCC([C@H](C)Nc2ncc(C#N)c(-c3c[nH]c4ncc(C(F)(F)F)cc34)n2)CC1 [Compound I-135, 2-((S)-1-(1-acetylpiperidin-4-yl)ethylamino)-4-(5-(trifluoromethyl)-1H-pyrrolo[2,3-b]pyridin-3-yl)pyrimidine-5-carbonitrile] |
| < 7.40 | N#Cc1cnc(NC(CO)c2cccnc2)nc1-c1c[nH]c2ncc(C(F)(F)F)cc12 (stereo not drawn) [Compound I-113, 2-(2-hydroxy-1-(pyridin-3-yl)ethylamino)-4-(5-(trifluoromethyl)-1H-pyrrolo[2,3-b]pyridin-3-yl)pyrimidine-5-carbonitrile] |
| > 8.52 | CCS(=O)(=O)N1CCC(C(C)Nc2ncc(C#N)c(-c3c[nH]c4ncc(C(F)(F)F)cc34)n2)CC1 (stereo not drawn) [Compound I-153, 2-(1-(1-(ethylsulfonyl)piperidin-4-yl)ethylamino)-4-(5-(trifluoromethyl)-1H-pyrrolo[2,3-b]pyridin-3-yl)pyrimidine-5-carbonitrile] |
| > 8.52 | C[C@@H](Nc1ncc(C#N)c(-c2c[nH]c3ncc(C(F)(F)F)cc23)n1)C1CCN(C(=O)CC#N)CC1 [Compound I-233, 2-((R)-1-(1-(2-cyanoacetyl)piperidin-4-yl)ethylamino)-4-(5-(trifluoromethyl)-1H-pyrrolo[2,3-b]pyridin-3-yl)pyrimidine-5-carbonitrile] |
| 7.40 to 8.52 | N#Cc1cnc(NC2CCOCC2)nc1-c1c[nH]c2ncc(C(F)(F)F)cc12 [Compound I-74, 2-(tetrahydro-2H-pyran-4-ylamino)-4-(5-(trifluoromethyl)-1H-pyrrolo[2,3-b]pyridin-3-yl)pyrimidine-5-carbonitrile] |
| > 8.52 | C[C@H](N)C(=O)N1CCC([C@@H](C)Nc2ncc(C#N)c(-c3c[nH]c4ncc(C(F)(F)F)cc34)n2)CC1 [Compound I-243, 2-((R)-1-(1-((S)-2-aminopropanoyl)piperidin-4-yl)ethylamino)-4-(5-(trifluoromethyl)-1H-pyrrolo[2,3-b]pyridin-3-yl)pyrimidine-5-carbonitrile] |
| < 7.40 | CC(C)Oc1ccc(CNc2ncc(C#N)c(-c3c[nH]c4ncc(C(F)(F)F)cc34)n2)cc1 [Compound I-41, 2-(4-isopropoxybenzylamino)-4-(5-(trifluoromethyl)-1H-pyrrolo[2,3-b]pyridin-3-yl)pyrimidine-5-carbonitrile] |
| < 7.40 | N#Cc1cnc(Sc2cccc(Cl)c2)nc1-c1c[nH]c2ncc(C(F)(F)F)cc12 [II-6, 2-(3-chlorophenylthio)-4-(5-(trifluoromethyl)-1H-pyrrolo[2,3-b]pyridin-3-yl)pyrimidine-5-carbonitrile] |
| > 8.52 | C[C@@H](Nc1ncc(C#N)c(-c2c[nH]c3ncc(C(F)(F)F)cc23)n1)C1CCN(C(=O)[C@H](O)C(F)(F)F)CC1 [Compound I-230, 2-((R)-1-(1-((S)-3,3,3-trifluoro-2-hydroxypropanoyl)piperidin-4-yl)ethylamino)-4-(5-(trifluoromethyl)-1H-pyrrolo[2,3-b]pyridin-3-yl)pyrimidine-5-carbonitrile] |
| > 8.52 | COc1ncc([C@@H](C)Nc2ncc(C#N)c(-c3c[nH]c4ncc(C(F)(F)F)cc34)n2)cn1 [Compound I-303, 2-(I-1-(2-methoxypyrimidin-5-yl)ethylamino)-4-(5-(trifluoromethyl)-1H-pyrrolo[2,3-b]pyridin-3-yl)pyrimidine-5-carbonitrile] |
| > 8.52 | C[C@@H](Nc1ncc(C#N)c(-c2c[nH]c3ncc(C(F)(F)F)cc23)n1)c1ccc(C(=O)O)cc1 [Compound I-186, 4-((1R)-1-(5-cyano-4-(5-(trifluoromethyl)-1H-pyrrolo[2,3-b]pyridin-3-yl)pyrimidin-2-ylamino)ethyl)benzoic acid] |
| > 8.52 | CCNC(=O)c1ccc([C@@H](C)Nc2ncc(C#N)c(-c3c[nH]c4ncc(C(F)(F)F)cc34)n2)cc1 [Compound I-170, 4-((1R)-1-(5-cyano-4-(5-(trifluoromethyl)-1H-pyrrolo[2,3-b]pyridin-3-yl)pyrimidin-2-ylamino)ethyl)-N-ethylbenzamide] |
| 7.40 to 8.52 | CC(C)(Nc1ncc(C#N)c(-c2c[nH]c3ncc(Cl)cc23)n1)C(=O)NCC(F)(F)F [IA-11, 2-(4-(5-chloro-1H-pyrrolo[2,3-b]pyridin-3-yl)-5-cyanopyrimidin-2-ylamino)-2-methyl-N-(2,2,2-trifluoroethyl)propanamide] |
| 7.40 to 8.52 | CC(C)(Nc1ncc(C#N)c(-c2c[nH]c3ncc(C(F)(F)F)cc23)n1)c1ccccc1 [Compound I-9, 2-(2-phenylpropan-2-ylamino)-4-(5-(trifluoromethyl)-1H-pyrrolo[2,3-b]pyridin-3-yl)pyrimidine-5-carbonitrile] |
